Patent US20230190728A1, “NEW THERAPEUTIC USES OF COMPOUNDS” (PROXIMAGEN, LLC, priority 2020, published 2023)

Test system: male C57BI/6 mice
Experiment: LPS-Induced Pulmonary Inflammation Study
Type: in vivo
Settings: for average lavage TNFα: lavage supernatant, ELISA
Protocol: This study was to test the efficacy of orally administered compounds as disclosed herein to reduce LPS-induced inflammatory cell infiltration of the lungs, and was carried out in male C57BI/6 mice.
Day 11: Groups 1 and 2 were administered 10% HP-β-CD. Group 3: 7.59 mg dexamethasone 21-phosphate disodium salt (Sigma, Cat. D1159, lot 88H1020, SF 1.316) was dissolved in […] HP-β-CD to prepare a 0.2 mg/mL solution. Group 4: 1 mg Example 7 was dissolved in 4.5 mL HP-β-CD and 7 µL 1 M HCI (MP Biomedicals, Cat. 194055, lot 3956H) with alternating sonication and vortexing. The pH was adjusted by addition of 5 µL 1 M NaOH and the volume brought up to 5 mL with 0.488 mL HP-β-CD to yield a 0.2 mg/mL solution. Group 5: 3 mg Example 7 was dissolved in 4.5 mL HP-β-CD and 20 µL 1 M HCI with alternating sonication and vortexing. The pH was adjusted by addition of 16 µL 1 M NaOH and the volume brought up to 5 mL with 0.464 mL HP-β-CD to yield a 0.6 mg/ mL solution. Group 6: 10 mg Example 7 was dissolved in 4.5 mL HP-β-CD and 66 µL 1 M HCI with alternating sonication and vortexing. The pH was adjusted by addition of 53 µL 1 M NaOH and the volume brought up to 5 mL with 0.381 mL HP-β-CD to yield a 2 mg/mL solution.
25.7 mg lipopolysaccharides (LPS) from E. coli strain 055:B5 (Sigma, Cat. L2880, lot 025M4040V) was dissolved in 2.57 mL sterile saline (Hospira, lot 56-836-FW) to prepare a 10 mg/mL solution.
The mice were numbered, weighed, and dosed orally at 10 mL/kg as in Table 5.
An hour later, the mice were anesthetized, a midline incision was made in the neck, the muscle layers separated by blunt dissection, and 2 mL/kg LPS (20 mg/kg) injected into the trachea (Groups 2-6). The incision was closed with wound clips and the mice returned to cages. Group 1 received 2 mL/kg saline.
Six hours after LPS/saline injection, the mice were anesthetized, the wound clips removed, the trachea was cannulated with a 23 G needle blunt, and the lungs lavaged eight times with 0.5 mL heparinized saline. The lavage was pooled, gently inverted, and a sample retained for white blood cell (WBC) counts and differential analysis. The remainder of the lavage was centrifuged, the supernatants dispensed to one aliquot in labelled Eppendorf tubes which were stored at -80° C. The carcasses were disposed of appropriately.
Day 14: The aliquot of lung lavage supernatant was equilibrated to room temperature, diluted 1:2 and assayed for TNFα by ELISA (R&D Systems, Cat. MTA00B, lot 332141).

[1] = 2 mg/kg oral, one hour pre-treatment (Group 4), did not reach statistical significance
[2] = 6 mg/kg oral, one hour pre-treatment (Group 5)
[3] = 20 mg/kg oral, one hour pre-treatment (Group 6)

SMILES: CS(=O)(=O)N1CCN(c2ccc(-c3nc4ccncc4n3-c3ccc(F)cc3)cn2)CC1 [Example 7, 1-{5-[3-(4-Fluorophenyl)-3H-Imidazo[4,5-C]Pyridin-2-Yl]Pyridin-2-Yl}-4-Methanesulfonylpiperazine]
- reduction in infiltrating inflammatory cells [1]: 3%
- reduction in lavage TNFα content [1]: 10%
- reduction in neutrophils in the lavage fluid [1]: 27%
- reduction in neutrophils in the lavage fluid (6 mg/kg oral, one hour pre-treatment): 97%
- reduction in infiltrating inflammatory cells [2]: 70%
- reduction in lavage TNFα content [2]: 65%
- reduction in neutrophils in the lavage fluid (20 mg/kg oral, one hour pre-treatment): 97%
- reduction in infiltrating inflammatory cells [3]: 93%
- reduction in lavage TNFα content [3]: 74%
- effect of one hour oral pre-treatment on all measured parameters (2, 6, 20 mg/kg oral prior to LPS challenge, in words): significant dose-dependent reduction in all measured parameters
- effect of oral pre-treatment on LPS-induced pulmonary Neutrophil infiltration (FIG. 1, in words): decreases neutrophil infiltration in lung tissue
- effect of oral pre-treatment on LPS-induced pulmonary lavage TNFa content (FIG. 2, in words): decreases TNFa content in pulmonary lavage
- average lavage TNFα (Group 4, 2 mg/kg oral 1 h before LPS, Mean SD): 337.00 pg/mL
- Neutrophils (Group 4, 2 mg/kg oral 1 h before LPS, lung lavage 6 h after LPS, Mean SD): 583 204
- average lavage TNFα (Group 5, 6 mg/kg oral 1 h before LPS, Mean SD): 132.90 pg/mL
- average lavage TNFα (Group 6, 20 mg/kg oral 1 h before LPS, Mean SD): 98.87 pg/mL
